Experimental data: patent US12297190B2, “Modulators of STING (stimulator of interferon genes)” (PFIZER INC., priority 2019, dated 2025)
Counter-ions that a name gives are not always drawn.

What was measured:
STING [1] = biological target: T1, STING (Homo sapiens, UniProt Q86WV6, G230A/H232R/R293Q/R71H); assay: Interferon-β induction: THP-1 Lucia ISG reporter cell line; format: cell-based; conditions: THP-1 Lucia ISG cells, 24 hours incubation, luciferase reporter; read-out: THP-1 Lucia ISG Cells IFN-β EC50
T1 construct: host or cells: THP-1 and THP-1 Lucia ISG cells
T1 sequence (Q86WV6 whole entry R71H/G230A/H232R/R293Q): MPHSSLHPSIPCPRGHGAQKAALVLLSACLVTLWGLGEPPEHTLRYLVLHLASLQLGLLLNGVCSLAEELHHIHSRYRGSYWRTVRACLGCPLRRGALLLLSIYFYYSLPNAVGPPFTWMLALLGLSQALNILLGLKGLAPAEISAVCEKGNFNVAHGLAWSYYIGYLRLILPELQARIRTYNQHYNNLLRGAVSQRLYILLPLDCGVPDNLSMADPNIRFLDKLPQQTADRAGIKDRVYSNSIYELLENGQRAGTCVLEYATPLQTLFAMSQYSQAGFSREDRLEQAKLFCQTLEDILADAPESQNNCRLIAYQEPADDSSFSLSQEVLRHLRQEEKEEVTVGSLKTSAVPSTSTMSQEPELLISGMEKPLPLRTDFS
Method: Interferon-β Induction: THP-1 ISG Reporter Cell Line
THP-1 Lucia™ ISG cells (InvivoGen) express the secreted luciferase “Lucia” reporter gene under the control of an IRF-inducible composite promotor comprised of five interferon response elements. THP-1 Lucia™ ISG cells were grown in RPMI media plus 2 mM L-glutamine, 10% fetal bovine serum, and 0.5% Pen-Strep. Hygromycin B and Zeocin were present to maintain stable transfection. 10^4 cells were seeded in 96-well plates and incubated overnight 37° C., 5% CO2. 50 μL of serial diluted compounds in media (final 0.5% DMSO) was and incubated for an additional 24 hours. After incubation, the plates were centrifuged at 2000 rpm for 10 min. 50 μl of cell culture supernatant of each well was transferred to a white, opaque 96-well plate. One pouch of QUANTI-Luc™ (InvivoGen) powder was prepared in 25 mL of endotoxin-free water and 100 μL of prepared warm QUANTI-Luc solution were added to each well containing the supernatant. The luminescence signal was measured using a Perkin-Elmer Envision microplate reader. Data were normalized to “% effect” with a positive control STING agonist that was known to maximize the luciferase signal and the negative control DMSO.

R232-STING = R232-STING (Homo sapiens, UniProt Q86WV6, H232R); assay: biochemical
R232-STING, sequence (Q86WV6 155-341 H232R): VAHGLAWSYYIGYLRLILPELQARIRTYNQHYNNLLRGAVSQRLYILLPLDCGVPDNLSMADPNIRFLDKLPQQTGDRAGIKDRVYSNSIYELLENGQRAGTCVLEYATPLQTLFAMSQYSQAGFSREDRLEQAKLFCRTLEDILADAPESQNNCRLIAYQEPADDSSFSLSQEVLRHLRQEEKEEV

STING [2] = biological target: T1, STING; assay: Phosphorylation of IRF3: THP-1 cell ELISA; format: cell-based; conditions: THP-1 cells, 3 hours incubation, phospho-IRF3 ELISA; read-out: THP-1 CELL P-IRF3 EC50
Method: Phosphorylation of IRF3: THP-1 Cell ELISA
STING activation results in recruitment of TBK1 and phosphorylation of IRF3 transcription factor before induction of type I interferons. THP-1 cells (InvivoGen) were grown in RPMI media plus 2 mM L-glutamine, 10% fetal bovine serum, and 0.5% Pen-Strep. 10^4 cells were seeded in 96-well plates and incubated overnight 37° C., 5% CO2. Compounds serial diluted compounds in media (final 0.5% DMSO) were added to the cells and incubated for an additional 3 hours. After incubation, the plates were centrifuged at 2000 rpm for 5 min. The cells were then lysed in 100 μl RIPA buffer and vortexed for 30 minutes at room temperature. 25 μl of lysate was then transferred to clear polystyrene High Bind plates that had been previously coated with mouse anti-human IRF-3 capture antibody (BD Pharmigen), and allowed to incubate at 4° C. for 16 hours. The plates were then washed and incubated with rabbit anti-phospho-IRF3 detection antibody (Cell Signaling Technologies) for 1.5 hours at room temperature. Finally, an HRP-linked secondary antibody (Cell Signaling Technologies) was added for 30 min before the Glo Substrate Reagent (R&D Systems) was used generate the luminescent signal. The signal was measured using a Perkin-Elmer Envision microplate reader. Data were normalized to “% effect” with a positive control STING agonist that was known to maximize the phosphorylated IRF3 signal and the negative control was DMSO.

Structure (SMILES)	EC50 (STING [1]) [µM]	Ki (R232-STING) [µM]	EC50 (STING [2]) [µM]
CCn1nc(C)cc1-c1n[nH]c(-c2cc(C(N)=O)cc3c2cnn3CCN2CC3CCC(C2)O3)n1 [Example M03]	28.5	0.159	32.1
CCn1nc(C)cc1-c1n[nH]c(-c2cc(C(N)=O)cc3c2ccn3C)n1 [Example A02, 4-[3-(1-ethyl-3-methyl-1H-pyrazol-5-yl)-1H-1,2,4-triazol-5-yl]-1-methyl-1H-indole-6-carboxamide]	7.48	0.0294	6.68
CCn1nc(C)cc1-c1nc(-c2cc(C(N)=O)cc3c2cnn3C)nn1COP(=O)(O)O [Example N01, [3-(6-carbamoyl-1-methyl-1H-indazol-4-yl)-5-(1-ethyl-3-methyl-1H-pyrazol-5-yl)-1H-1,2,4-triazol-1-yl]methyl dihydrogenphosphate]	76.9	–	≥ 100
CCn1nc(C)cc1-c1n[nH]c(-c2cc(C(N)=O)cc3c2cnn3C(C)CN2CCOCC2)n1 (stereo not drawn) [Example D06, 4-[5-(1-ethyl-3-methyl-1H-pyrazol-5-yl)-4H-1,2,4-triazol-3-yl]-1-[1-(morpholin-4-yl)propan-2-yl]-1H-indazole-6-carboxamide]	≥ 100	0.301	82.9
CCn1nc(C)cc1-c1n[nH]c(-c2cc(C(N)=O)cc3c2cnn3CCN2CC(F)C2)n1 [Example M01, 4-[3-(1-ethyl-3-methyl-1H-pyrazol-5-yl)-1H-1,2,4-triazol-5-yl]-1-[2-(3-fluoroazetidin-1-yl)ethyl]-1H-indazole-6-carboxamide trifluoroacetic acid salt]	81.9	0.501	77.3
CCn1nc(CO)cc1-c1nc(-c2nc(C(N)=O)cc3c2cnn3C)n(C)n1 [Example AB01, 4-{3-[1-ethyl-3-(hydroxymethyl)-1H-pyrazol-5-yl]-1-methyl-1H-1,2,4-triazol-5-yl}-1-methyl-1H-pyrazolo[4,3-c]pyridine-6-carboxamide]	5.01	0.0236	3.75
CCn1nc(C)c(F)c1-c1n[nH]c(-c2nc(C(N)=O)cc3c2cnn3C)n1 [Example C08, 4-[3-(1-ethyl-4-fluoro-3-methyl-1H-pyrazol-5-yl)-1H-1,2,4-triazol-5-yl]-1-methyl-1H-pyrazolo[4,3-c]pyridine-6-carboxamide]	0.13	0.0047	0.14

Further lines, results first:

EC50 (STING [1]) [µM]	Ki (R232-STING) [µM]	EC50 (STING [2]) [µM]	Structure (SMILES)
> 33.3	0.49	> 33.3	CCn1nc(C)cc1-c1n[nH]c(-c2cc(C(N)=O)cc3c2cnn3CCN2CCS(=O)(=O)CC2)n1 [YY27, 1-[2-(1,1-dioxo-1lambda~6~-thiomorpholin-4-yl)ethyl]-4-[3-(1-ethyl-3-methyl-1H-pyrazol-5-yl)-1H-1,2,4-triazol-5-yl]-1H-indazole-6-carboxamide]
> 10	0.108	> 10	CCn1nc(C)c(Cl)c1-c1nc(-c2nc(C(N)=O)cc3c2cnn3C)c(CN)s1 [YY35, 4-[5-(aminomethyl)-2-(4-chloro-1-ethyl-3-methyl-1H-pyrazol-5-yl)-1,3-thiazol-4-yl]-1-methyl-1H-pyrazolo[4,3-c]pyridine-6-carboxamide]
5.22	0.138	5.95	Cc1cc(-c2nc(-c3nc(C(N)=O)cc4c3cnn4C)c(CN)s2)n(CCCO)n1 [Example AF01, 4-{5-(aminomethyl)-2-[1-(3-hydroxypropyl)-3-methyl-1H-pyrazol-5-yl]-1,3-thiazol-4-yl}-1-methyl-1H-pyrazolo[4,3-c]pyridine-6-carboxamide]
> 100	0.175	> 100	CCn1nc(C)cc1-c1nnc(-c2cc(C(N)=O)cc3c2cc(C(=O)O)n3C)[nH]1 [YY19, 6-carbamoyl-4-[5-(1-ethyl-3-methyl-1H-pyrazol-5-yl)-4H-1,2,4-triazol-3-yl]-1-methyl-1H-indole-2-carboxylic acid]
> 10	0.0072	> 11.1	Cc1nn(CCC(=O)O)c(-c2n[nH]c(-c3nc(C(N)=O)cc4c3cnn4C)n2)c1O [YY32, 3-{5-[5-(6-carbamoyl-1-methyl-1H-pyrazolo[4,3-c]pyridin-4-yl)-1H-1,2,4-triazol-3-yl]-4-hydroxy-3-methyl-1H-pyrazol-1-yl}propanoic acid]
> 100	0.722	> 100	CCn1nc(C)c(F)c1-c1n[nH]c(-c2cc(C(N)=O)cc3c2cnn3CCCN)n1 [YY12, 1-(3-aminopropyl)-4-[3-(1-ethyl-4-fluoro-3-methyl-1H-pyrazol-5-yl)-1H-1,2,4-triazol-5-yl]-1H-indazole-6-carboxamide]
> 100	0.529	> 100	CCn1nc(C)cc1-c1nnc(-c2cc(C(N)=O)cc3c2cnn3CCN2CCC(OC)CC2)[nH]1 [YY11, 4-[5-(1-ethyl-3-methyl-1H-pyrazol-5-yl)-4H-1,2,4-triazol-3-yl]-1-[2-(4-methoxypiperidin-1-yl)ethyl]-1H-indazole-6-carboxamide]
> 100	0.237	> 100	CCn1nc(C)cc1-c1nnc(-c2cc(C(N)=O)cc3c2cnn3CC2(C)CC(OC)CN2C)[nH]1 (stereo not drawn) [YY10, 4-[5-(1-ethyl-3-methyl-1H-pyrazol-5-yl)-4H-1,2,4-triazol-3-yl]-1-[(4-methoxy-1,2-dimethylpyrrolidin-2-yl)methyl]-1H-indazole-6-carboxamide]
> 100	> 0.891	> 100	Cc1cc(-c2n[nH]c(-c3c(F)c(C(N)=O)cc4c3cnn4C)n2)n(CCC(=O)O)n1 [YY21, 3-{5-[5-(6-carbamoyl-5-fluoro-1-methyl-1H-indazol-4-yl)-1H-1,2,4-triazol-3-yl]-3-methyl-1H-pyrazol-1-yl}propanoic acid]
> 100	0.484	> 100	CCn1nc(C)cc1-c1nnc(-c2cc(C(N)=O)cc3c2cnn3[C@@H]2CCNC2)[nH]1 [YY14, 4-[5-(1-ethyl-3-methyl-1H-pyrazol-5-yl)-4H-1,2,4-triazol-3-yl]-1-[(3R)-pyrrolidin-3-yl]-1H-indazole-6-carboxamide]
–	0.65	–	CCn1nc(C)cc1-c1nnc(-c2cc(C(N)=O)cc3c2cnn3CCC2CCNCC2)[nH]1 [ZZZ073, 4-[5-(1-ethyl-3-methyl-1H-pyrazol-5-yl)-4H-1,2,4-triazol-3-yl]-1-[2-(piperidin-4-yl)ethyl]-1H-indazole-6-carboxamide]
–	0.785	–	CCn1nc(C)cc1-c1nnc(-c2cc(C(N)=O)cc3c2cnn3CCCC2CCCNC2)[nH]1 (stereo not drawn) [ZZZ079, 4-[5-(1-ethyl-3-methyl-1H-pyrazol-5-yl)-4H-1,2,4-triazol-3-yl]-1-[3-(piperidin-3-yl)propyl]-1H-indazole-6-carboxamide]
–	0.928	–	CCn1nc(C)cc1-c1nnc(-c2cc(C(N)=O)cc3c2cnn3C[C@H]2CCN(C3CC3)C2)[nH]1 (racemic) [ZZZ038, 1-{[(3S)-1-cyclopropylpyrrolidin-3-yl]methyl}-4-[5-(1-ethyl-3-methyl-1H-pyrazol-5-yl)-4H-1,2,4-triazol-3-yl]-1H-indazole-6-carboxamide]
–	0.905	–	CCn1nc(C)cc1-c1n[nH]c(-c2cc(C(N)=O)cc3c2cnn3CCN2CCOC[C@H]2CO)n1 [ZZZ120, 4-[3-(1-ethyl-3-methyl-1H-pyrazol-5-yl)-1H-1,2,4-triazol-5-yl]-1-{2-[(3R)-3-(hydroxymethyl)morpholin-4-yl]ethyl}-1H-indazole-6-carboxamide]
